According to ChEMBL document CHEMBL5356944, “Pharmacological overview of hederagenin and its derivatives” (RSC Med Chem, 2023):
In brackets after ≈: the same amount, converted by molar mass.

Columns and labels:
[1] = tested on: Leishmania mexicana; assay: Antileishmanial activity against Leishmania mexicana amastigotes assessed as effective dose; conditions: read-out: ED50 (the source's name)
[2] = Anticancer activity against human KBV cells xenografted in nude mouse assessed as reduction in tumor weight at 10 mg/kg relative to control; type: functional; design: scale not given: the % may be the effect or the level left
[3] = Anticancer activity against human KBV cells assessed as cell survival rate in presence of paclitaxel
[4] = tested on: T47D; assay: Cytotoxicity against human T47D cells assessed as reduction in cell viability measured after 72 hrs by MTT assay; type: functional, cell-based
[5] = tested on: MCF7; assay: Cytotoxicity against human MCF7 cells assessed as reduction in cell viability measured after 72 hrs by MTT assay; type: functional, cell-based; conditions: MCF7, 72 h
[6] = tested on: RAW264.7; assay: Antiinflammatory activity in mouse RAW264.7 cells assessed as inhibition of LPS/IFNgamma-induced nitric oxide production; type: functional
[7] = tested on: A-431; assay: Cytotoxicity against human A-431 cells assessed as reduction in cell viability measured after 72 hrs by MTT assay; type: functional, cell-based; conditions: A-431, 72 h
[8] = tested on: HT-1080; assay: Cytotoxicity against human HT-1080 cells assessed as reduction in cell viability measured after 72 hrs by MTT assay; type: functional, cell-based; conditions: HT-1080, 72 h
[9] = tested on: HL-60; assay: Cytotoxicity against human HL-60 cells assessed as reduction in cell viability measured after 72 hrs by MTT assay; type: functional, cell-based; conditions: HL-60, 72 h
[10] = tested on: A549; assay: Cytotoxicity against human A549 cells assessed as reduction in cell viability measured after 72 hrs by MTT assay; type: functional, cell-based; conditions: A549, 72 h
[11] = tested on: A549; assay: Cytotoxicity against human A549 cells assessed as reduction in cell viability measured after 24 hrs by MTT assay; type: functional, cell-based; conditions: A549, 24 h
[12] = tested on: RAW264.7; assay: Anti-inflammatory activity against mouse RAW264.7 cells assessed as inhibition of LPS-induced NO production; type: functional, cell-based
[13] = tested on: HepG2; assay: Antiproliferative activity against human HepG2 cells assessed as reduction in cell viability after 48 hrs by MTT assay; type: functional, cell-based; conditions: HepG2, 48 h
[14] = Cytotoxicity against mouse L929 cells assessed as reduction in cell viability; type: toxicity, cell-based
[15] = tested on: A549; assay: Antitumor activity against human A549 cells assessed as cell growth inhibition
[16] = Half life in rat plasma; type: ADME, cell-free
[17] = tested on: LoVo; assay: Antiproliferative activity against human LoVo cells assessed as reduction in cell viability incubated for 48 hrs by MTT assay; type: functional, cell-based
[18] = tested on: NCI-H1299; assay: Inhibition of colony formation in human NCI-H1299 cells assessed as reduction in number of colonies measured after 24 to 48 hrs by crystal violet staining based assay; type: functional; conditions: time 24-48 hrs
[19] = tested on: BT-20; assay: Cytotoxicity against human BT-20 cells assessed as reduction in cell viability incubated for 48 hrs by Alamar blue assay; type: functional, cell-based; conditions: BT-20, 48 h
[20] = tested on: A549; assay: Cytotoxicity against human A549 cells assessed as reduction in cell growth incubated for 48 hrs by Alamar blue assay; type: functional, cell-based; conditions: A549, 48 h
[21] = tested on: A549; assay: Inhibition of colony formation in human A549 cells measured after 24 to 48 hrs by crystal violet staining based analysis; type: functional; conditions: time 24-48 hrs
[22] = tested on: Staphylococcus aureus; assay: Antibacterial activity against Staphylococcus aureus KCTC 503 assessed as reduction in bacterial growth; type: functional
[23] = tested on: Streptococcus mutans; assay: Antibacterial activity against Streptococcus mutans ATCC 25175 assessed as reduction in microbial growth after 24 hrs by agar well diffusion assay; type: functional
[24] = Elimination rate constant in rat plasma; type: ADME, cell-free
[25] = tested on: Toxoplasma gondii; assay: Antiparasitic activity against Toxoplasma gondii infected in human HeLa cells assessed as inhibition of cell growth relative to control; type: functional
[26] = Tmax in rat plasma; type: ADME, cell-free
[27] = tested on: Enterococcus faecalis; assay: Antibacterial activity against Enterococcus faecalis assessed as reduction in bacterial cell growth; type: functional
[28] = tested on: LoVo; assay: Antiproliferative activity against human LoVo cells assessed as reduction in cell viability incubated for 24 hrs by MTT assay; type: functional, cell-based
[29] = tested on: HeLa; assay: Antiproliferative activity against human HeLa cells assessed as reduction in cell viability measured after 72 hrs by MTT assay; type: functional, cell-based

Compound `CC1(C)CC[C@]2(C(=O)O)CC[C@]3(C)C(=CC[C@@H]4[C@@]5(C)CC[C@H](O)[C@@](C)(C=O)[C@@H]5CC[C@]43C)[C@@H]2C1` has an EC50 [1] of 9.6 µM.
In the case of `CC1(C)CC[C@]2(C(=O)OCc3ccccc3)CC[C@]3(C)C(=CC[C@@H]4[C@@]5(C)Cc6nccnc6[C@@](C)(CO)[C@@H]5CC[C@]43C)[C@@H]2C1`, the Activity [2] is reported as 41.88% and the Activity [3] is reported as 25.34%.
With `CC1(C)CC[C@]2(NC(=O)N3CCC[C@H]3C(=O)O)CC[C@]3(C)C(=CC[C@@H]4[C@@]5(C)CC[C@@H]6OC(C)(C)OC[C@@]6(C)[C@@H]5CC[C@]43C)[C@@H]2C1` the EC50 [1] was 81.1 µM.
For `CC(=O)OC[C@@]1(C)[C@@H]2CC[C@]3(C)[C@H](CC=C4[C@@H]5CC(C)(C)CC[C@]5(NC(=O)N5CCCC5)CC[C@]43C)[C@@]2(C)CC[C@@H]1O`, the EC50 [1] was 10.4 µM.
For `CC1(C)CC[C@]2(C(=O)O)CC[C@]3(C)C(=CC[C@@H]4[C@@]5(C)CC[C@@H]6OC(C)(C)OC[C@@]6(C)[C@@H]5CC[C@]43C)[C@@H]2C1`, the EC50 [1] was 83.6 µM.
`CC(=O)OC[C@H](OC(C)=O)[C@H](OC(C)=O)[C@@H](OC(C)=O)[C@@H]1OC[C@@]2(C)[C@@H]3CC[C@]4(C)[C@H](CC=C5[C@@H]6CC(C)(C)CC[C@]6(C(=O)O)CC[C@]54C)[C@@]3(C)CC[C@@H]2O1` gave an EC50 [1] of 7.2 µM.
`CC1(C)CC[C@]2(N=C=O)CC[C@]3(C)C(=CC[C@@H]4[C@@]5(C)CC[C@@H]6OC(C)(C)OC[C@@]6(C)[C@@H]5CC[C@]43C)[C@@H]2C1` gave an EC50 [1] of 0.9 µM.
Compound `CC1(C)CC[C@]2(C(=O)OCc3ccccc3)CC[C@]3(C)C(=CC[C@@H]4[C@@]5(C)CC[C@@H]6O[C@H]([C@H]7O[C@H](O)[C@H](O)[C@@H](O)[C@@H]7O)OC[C@@]6(C)[C@@H]5CC[C@]43C)[C@@H]2C1` has an EC50 [1] of 6 µM.
Compound `CC1(C)CC[C@]2(C(=O)OCc3ccccc3)CC[C@]3(C)C(=CC[C@@H]4[C@@]5(C)CC[C@@H]6O[C@H]([C@H](OCc7ccccc7)[C@@H](OCc7ccccc7)[C@H](COCc7ccccc7)OCc7ccccc7)OC[C@@]6(C)[C@@H]5CC[C@]43C)[C@@H]2C1` has an EC50 [1] of 4.5 µM.
`C[C@H](O)[C@H]1OC(CC2OC[C@@]3(C)[C@@H]4CC[C@]5(C)[C@H](CC=C6[C@@H]7CC(C)(C)CC[C@]7(C(=O)O)CC[C@]65C)[C@@]4(C)CC[C@@H]3O2)[C@@H](O)[C@@H]1O` (some centres undefined) gave an EC50 [1] of 10.3 µM.
In the case of `CC1(C)CC[C@]2(C(=O)O)CC[C@]3(C)C(=CC[C@@H]4[C@@]5(C)CC[C@@H]6O[C@H](c7ccccc7)OC[C@@]6(C)[C@@H]5CC[C@]43C)[C@@H]2C1`, the EC50 [1] is reported as 10 µM.
`COC(=O)[C@]12CCC(C)(C)C[C@H]1C1=CC[C@@H]3[C@@]4(C)C=C(C#N)C(=O)[C@@](C)(CO)[C@@H]4CC[C@@]3(C)[C@]1(C)CC2` showed an EC50 [4] of 3.91 µM, an EC50 [5] of 2.25 µM and an Activity [6] of 1.6 µM. It also gave an EC50 [7] of 1.7 µM, an EC50 [8] of 3.03 µM and an EC50 [9] of 0.548 µM. It also gave an EC50 [10] of 7.94 µM.
Compound `Cc1cncc(C(=O)OCCOC(=O)[C@]23CCC(C)(C)C[C@H]2C2=CC[C@@H]4[C@@]5(C)CC[C@H](O)[C@@](C)(CO)[C@@H]5CC[C@@]4(C)[C@]2(C)CC3)n1` has an IC50 [11] of 3.45 µM.
`COC(=O)[C@]12CCC(C)(C)C[C@H]1C1=CC[C@@H]3[C@@]4(C)CC[C@@H]5O[C@H](c6ccccc6)OC[C@@]5(C)[C@@H]4CC[C@@]3(C)[C@]1(C)CC2` showed an EC50 [1] of 2.9 µM.
Compound `CC1(C)CC[C@]2(NC(=O)N3CCCC3)CC[C@]3(C)C(=CC[C@@H]4[C@@]5(C)CC[C@@H]6OC(C)(C)OC[C@@]6(C)[C@@H]5CC[C@]43C)[C@@H]2C1` has an EC50 [1] of 92 µM.
Work on `C[C@]12CC[C@H](O)[C@@](C)(CO)[C@@H]1CC[C@]1(C)[C@@H]2CC=C2[C@@H]3C[C@](C)(C(=O)O)[C@@H](O)C[C@]3(C(=O)O)CC[C@]21C` yielded an IC50 [12] of 0.078 µM.
In the case of `COC(=O)[C@]12CCC(C)(C)C[C@H]1C1/C(=N/O)C[C@@H]3[C@@]4(C)CC[C@H](OC(C)=O)[C@@](C)(COC(C)=O)[C@@H]4CC[C@@]3(C)[C@]1(C)CC2` (some centres undefined), the IC50 [13] is reported as 1.88 µM and the IC50 [14] is reported as 21.2 µM.
For `O=c1[nH]cc(F)c(=O)[nH]1` [FLUOROURACIL], the IC50 [13] was 16.4 µM.
In the case of `C[C@@H]1O[C@@H](O[C@H]2[C@H](O[C@H]3CC[C@@]4(C)[C@@H](CC[C@]5(C)[C@@H]4CC=C4[C@@H]6CC(C)(C)CC[C@]6(C(=O)O)CC[C@]45C)[C@]3(C)CO)OC[C@H](O[C@@H]3O[C@H](CO)[C@@H](O)[C@H](O)[C@H]3O)[C@@H]2O)[C@H](O)[C@H](O)[C@H]1O` [HEDERACOLCHISIDE A], the IC50 [15] is reported as 5.8 µM.
For `CC1(C)CC[C@]2(C(=O)O)CC[C@]3(C)C(=CC[C@@H]4[C@@]5(C)CC[C@H](O)[C@@](C)(CO)[C@@H]5CC[C@]43C)[C@@H]2C1` [HEDERAGENIN], the half-life [16] was 44.1 min, the IC50 [17] was 1.17 µM and the INH [18] was 20 µM. It also gave an IC50 [19] of 11.8 µM, an IC50 [20] of 26.2 µM and an INH [21] of 10 µM. For the same compound, the MIC [22] was 16 µg/mL (≈ 33.8 µM), the MIC [23] was 9.7 µg/mL and the IC50 [13] was 35.9 µM. The Kel [24] was 0.96 h⁻¹, the “inhibition (INH)” value [25] was 64.8% and the Tmax [26] was 18.3 min. For the same compound, the MIC [27] was 128 µg/mL (≈ 271 µM), the IC50 [28] was 1.39 µM and the IC50 [29] was 17.4 µg/mL (≈ 36.9 µM). The Activity [3] was 149.47% and the IC50 [11] was > 50 µM.
